According to ChEMBL document CHEMBL3988442, “University of Dundee, Small-Polar-MMV Screening Library” (2021):
pIC50: −log10 of the molar value. Several values for one entry are separate records, joined by “and”; a condition that tells them apart may be missing. Identical values can stand only once.

Experiments:
[1] = molecular target: Chromo domain-containing protein 1 (Saccharomyces cerevisiae (strain ATCC 204508 / S288c) (Baker's yeast), UniProt P32657); assay: ScCHD-1 Enzyme Inhibition Assay; assay type: functional
Lysine--tRNA ligase = Lysine--tRNA ligase (Plasmodium falciparum (isolate 3D7), UniProt Q8IDJ8); assay: Pf-KRS-1 (Lysyl-RNA Synthetase-1, KRS-1, cytosolic KRS) from Plasmodium falciparum. Inhibitor assay, 384 well plate, luminescence read.; assay type: functional
[2] = molecular target: T1, Ubiquitin-activating enzyme e1, putative (Leishmania donovani (strain BPK282A1), UniProt E9BSI1); assay: Leishmania donovani Ubiquitin Activating Enzyme (LdE1); assay type: functional
T1 sequence (E9BSI1 whole entry): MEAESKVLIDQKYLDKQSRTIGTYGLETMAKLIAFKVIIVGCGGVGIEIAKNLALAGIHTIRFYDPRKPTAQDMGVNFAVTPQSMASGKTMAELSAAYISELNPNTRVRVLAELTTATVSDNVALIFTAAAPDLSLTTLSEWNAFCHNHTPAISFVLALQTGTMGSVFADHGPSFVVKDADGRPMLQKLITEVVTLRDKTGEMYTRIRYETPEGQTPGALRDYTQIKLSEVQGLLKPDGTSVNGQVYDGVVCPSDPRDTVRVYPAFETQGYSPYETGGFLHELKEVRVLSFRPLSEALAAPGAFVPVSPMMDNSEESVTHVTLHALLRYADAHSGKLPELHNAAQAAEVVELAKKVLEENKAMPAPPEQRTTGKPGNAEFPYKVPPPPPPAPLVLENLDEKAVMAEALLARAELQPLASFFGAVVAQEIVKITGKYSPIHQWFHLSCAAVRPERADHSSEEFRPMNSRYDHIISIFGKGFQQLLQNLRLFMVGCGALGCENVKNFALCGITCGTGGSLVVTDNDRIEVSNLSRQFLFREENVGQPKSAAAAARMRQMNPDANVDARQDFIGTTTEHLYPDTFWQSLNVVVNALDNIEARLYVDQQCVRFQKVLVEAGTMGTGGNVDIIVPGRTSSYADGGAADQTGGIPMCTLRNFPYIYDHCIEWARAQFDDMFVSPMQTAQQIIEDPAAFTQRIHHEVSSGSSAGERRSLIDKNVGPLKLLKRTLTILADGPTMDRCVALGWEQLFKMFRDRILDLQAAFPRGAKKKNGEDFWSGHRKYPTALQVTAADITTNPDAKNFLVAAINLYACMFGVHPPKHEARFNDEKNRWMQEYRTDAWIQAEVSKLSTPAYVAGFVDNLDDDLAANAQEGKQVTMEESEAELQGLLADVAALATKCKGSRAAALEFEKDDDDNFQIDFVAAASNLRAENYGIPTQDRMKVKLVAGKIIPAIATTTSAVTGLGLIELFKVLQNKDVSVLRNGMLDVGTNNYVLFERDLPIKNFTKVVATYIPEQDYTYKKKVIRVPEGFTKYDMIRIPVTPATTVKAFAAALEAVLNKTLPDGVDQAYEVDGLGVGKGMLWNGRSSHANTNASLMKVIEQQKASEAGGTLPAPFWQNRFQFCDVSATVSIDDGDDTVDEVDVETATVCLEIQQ

Histidine--tRNA ligase = molecular target: T2, Histidine--tRNA ligase (Leishmania infantum, UniProt A4I591); assay: Leishmania infantum Histidine tRNA synthetase (LdHisRS); assay type: functional
T2 sequence (A4I591 whole entry): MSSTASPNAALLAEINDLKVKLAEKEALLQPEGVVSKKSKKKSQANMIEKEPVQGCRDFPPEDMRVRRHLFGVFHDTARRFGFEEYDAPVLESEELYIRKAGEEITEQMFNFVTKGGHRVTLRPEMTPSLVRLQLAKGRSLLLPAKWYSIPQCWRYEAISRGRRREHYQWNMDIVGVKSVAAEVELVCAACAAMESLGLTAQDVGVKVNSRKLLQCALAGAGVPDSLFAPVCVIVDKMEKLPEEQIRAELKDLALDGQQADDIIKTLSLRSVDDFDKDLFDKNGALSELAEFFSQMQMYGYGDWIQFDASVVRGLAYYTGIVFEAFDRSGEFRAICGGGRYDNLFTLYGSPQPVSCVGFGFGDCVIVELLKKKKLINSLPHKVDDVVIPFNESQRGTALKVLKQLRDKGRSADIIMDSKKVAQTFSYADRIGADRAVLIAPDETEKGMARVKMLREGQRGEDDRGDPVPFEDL

[3] = tested on: Mycobacterium tuberculosis; assay: Cornell M. t heat shock assay; assay type: functional, organism-based; settings: Mycobacterium tuberculosis

Chromo domain-containing protein 1, sequence (P32657 whole entry, the tested form may be a part): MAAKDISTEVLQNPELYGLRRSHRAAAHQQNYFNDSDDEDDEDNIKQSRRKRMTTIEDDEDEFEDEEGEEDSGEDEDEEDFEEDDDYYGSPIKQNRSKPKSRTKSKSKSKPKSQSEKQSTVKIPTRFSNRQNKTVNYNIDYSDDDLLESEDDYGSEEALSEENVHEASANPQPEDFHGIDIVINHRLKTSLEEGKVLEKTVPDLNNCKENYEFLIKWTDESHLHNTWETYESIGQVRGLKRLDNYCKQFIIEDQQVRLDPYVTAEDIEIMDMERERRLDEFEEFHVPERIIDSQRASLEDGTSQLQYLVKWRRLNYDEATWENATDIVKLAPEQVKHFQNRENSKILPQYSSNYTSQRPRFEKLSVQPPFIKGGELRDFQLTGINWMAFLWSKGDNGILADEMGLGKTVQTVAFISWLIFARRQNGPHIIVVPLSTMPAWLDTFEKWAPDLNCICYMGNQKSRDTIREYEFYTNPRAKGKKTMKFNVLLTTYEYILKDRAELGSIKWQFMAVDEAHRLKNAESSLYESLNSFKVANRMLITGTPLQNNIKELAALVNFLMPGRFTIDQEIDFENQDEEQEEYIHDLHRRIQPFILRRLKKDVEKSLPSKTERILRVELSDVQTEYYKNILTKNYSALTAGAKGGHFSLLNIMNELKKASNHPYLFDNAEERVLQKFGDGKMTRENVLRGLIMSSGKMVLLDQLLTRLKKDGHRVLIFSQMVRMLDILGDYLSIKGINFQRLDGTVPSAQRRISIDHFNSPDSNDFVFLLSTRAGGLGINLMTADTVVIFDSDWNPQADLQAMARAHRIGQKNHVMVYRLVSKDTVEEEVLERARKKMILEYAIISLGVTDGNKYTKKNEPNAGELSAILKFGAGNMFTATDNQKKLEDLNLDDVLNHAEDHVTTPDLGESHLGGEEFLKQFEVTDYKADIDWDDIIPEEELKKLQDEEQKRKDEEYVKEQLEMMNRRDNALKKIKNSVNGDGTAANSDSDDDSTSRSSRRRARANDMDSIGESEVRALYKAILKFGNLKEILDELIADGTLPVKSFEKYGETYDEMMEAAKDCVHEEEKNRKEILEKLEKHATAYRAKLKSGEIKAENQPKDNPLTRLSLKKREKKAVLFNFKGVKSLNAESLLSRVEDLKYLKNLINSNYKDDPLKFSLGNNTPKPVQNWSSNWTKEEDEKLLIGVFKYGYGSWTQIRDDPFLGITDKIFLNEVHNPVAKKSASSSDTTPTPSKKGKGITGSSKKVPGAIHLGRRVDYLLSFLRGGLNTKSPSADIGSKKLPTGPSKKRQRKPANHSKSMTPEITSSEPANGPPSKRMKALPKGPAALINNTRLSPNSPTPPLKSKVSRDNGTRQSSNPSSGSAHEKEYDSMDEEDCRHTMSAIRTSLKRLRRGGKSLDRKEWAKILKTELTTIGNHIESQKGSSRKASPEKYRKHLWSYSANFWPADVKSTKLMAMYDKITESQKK
Lysine--tRNA ligase, sequence (Q8IDJ8 whole entry): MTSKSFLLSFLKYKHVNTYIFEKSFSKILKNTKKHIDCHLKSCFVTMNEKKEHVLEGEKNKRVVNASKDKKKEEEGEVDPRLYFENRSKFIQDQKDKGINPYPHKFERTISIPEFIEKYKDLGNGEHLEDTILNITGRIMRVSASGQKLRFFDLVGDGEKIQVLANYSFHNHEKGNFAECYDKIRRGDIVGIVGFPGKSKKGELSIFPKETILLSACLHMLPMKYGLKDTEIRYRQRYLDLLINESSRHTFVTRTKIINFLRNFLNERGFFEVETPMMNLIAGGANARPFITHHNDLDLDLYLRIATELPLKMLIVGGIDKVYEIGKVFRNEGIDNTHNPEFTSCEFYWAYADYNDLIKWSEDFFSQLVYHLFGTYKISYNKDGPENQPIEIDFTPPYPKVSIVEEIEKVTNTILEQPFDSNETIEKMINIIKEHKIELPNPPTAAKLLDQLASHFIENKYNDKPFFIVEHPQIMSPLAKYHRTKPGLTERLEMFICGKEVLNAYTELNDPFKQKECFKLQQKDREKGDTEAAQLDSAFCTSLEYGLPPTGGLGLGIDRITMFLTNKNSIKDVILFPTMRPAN

SMILES	pIC50 [1]	also measured
Cc1ncc(S(C)(=O)=O)c(C2CCCNC2)n1 (stereo not given)	< 4.53	–
CCNC(=O)N(C)Cc1ccc(SC)c(OC)c1	< 4.53	–
Cc1ccc(CNC(=O)CN2CCN(CC(O)C3CC3)CC2)cc1 (stereo not given)	< 4.53	–
O=C(Cn1c(=O)n(Cc2ccco2)c2ncccc21)NC1CCCCC1	< 4.53	–
COc1ccc(CC(=O)N(C)Cc2nnc3ccccn23)cc1	< 4.53	–
c1cn(Cc2nnc(C3CCN(c4nccs4)CC3)n2C2CC2)cn1	< 4.53	–
Cc1ccc(=O)n(CC2(O)CCN(Cc3cc(C)c(O)c(C)c3)CC2)n1	< 4.53	–
CN1CCN(c2ncc3c(=O)n(-c4cccc(F)c4)c(=O)[nH]c3n2)CC1	< 4.53	–
CCNC(=O)[C@@H]1C[C@H](NC(=O)Cc2ccsc2)CN1Cc1ccc(C)o1	< 4.53	–
Cc1cnn(CC2CCCN2CC(=O)N(C)CCC#N)c1 (stereo not given)	< 4.53	–
COc1c(CNC2CCc3c(Cl)cccc32)c(C)nn1C (stereo not given)	< 4.53	–
CC(C)c1noc(CCC(=O)NC(C)c2nnc3n2CCCCC3)n1 (stereo not given)	< 4.53	–
COCCNC(=O)C(C)n1cc(Br)cn1 (stereo not given)	< 4.53	–
Cc1nn(C)c(C)c1NC(=O)CCn1ncc2c(C)cccc21	< 4.53	–
Cc1ccc(S(=O)(=O)NCCNC(=O)c2ccoc2)cc1F	< 4.53	–
Cc1ccc(C(=O)N2CCn3cc(CN(C)Cc4ccco4)nc3C2)o1	< 4.53	–
CN(C)c1ccc(CNc2cncc(-n3cccn3)n2)cc1	< 4.53	–
CCN(CC)CCNC(=O)c1cc(C(C)C)nc(N2CCCC2)n1	< 4.53	–
Cn1cnc2c1C(COCC1CC1)CN(C(=O)Cc1ccsc1)C2 (stereo not given)	< 4.53	–
CCNC(=O)CCN1CCC(c2cc(N3CCOCC3)nc(C)n2)CC1	< 4.53	–

SMILES	pIC50 [1]	also measured
CNS(=O)(=O)Cc1ccc(CNC(=O)Nc2cn[nH]c2)cc1	–	pIC50 (Lysine--tRNA ligase): < 4.30; pIC50 [2]: < 4.00
CCCN(C(=O)c1ccncc1)c1nc2c(s1)CCc1c-2cnn1C	–	pIC50 (Histidine--tRNA ligase): 4.69 and 4.77; pIC50 (Lysine--tRNA ligase): < 4.30; pIC50 [2]: < 4.00
Cc1cc(C(=O)N2CCCCC2c2nc(C)cs2)[nH]n1 (stereo not given)	< 4.53	–
O=C1N(Cc2cccc(F)c2F)CCCC1(O)CNC1CCCC1 (stereo not given)	< 4.53	–
Cc1cccc(C(=O)N2C[C@@H](OCc3cccnc3)[C@H]3OCCC[C@@H]32)n1	< 4.53	–
COc1ccc(NC(=O)CCC2CCCN(Cc3ncon3)C2)cc1Cl (stereo not given)	< 4.53	–
Cc1ccccc1C1CCCN1C(=O)CN1CC2(CCNCC2)OC1=O (stereo not given)	< 4.53	–
COC[C@@]12CC[C@@H](N3CCOCC3)C[C@H]1CCN(c1ncccn1)C2	< 4.53	–
CCc1nnc(CNC2CCc3nc(C(C)C)nn3C2)o1 (stereo not given)	–	pIC50 [2]: < 4.00; pIC50 [3]: < 4.00
COc1cccc2c1OCC(C(=O)NC1CCN(S(C)(=O)=O)CC1)C2 (stereo not given)	< 4.53	–
FC(F)(F)COCCN1CCCC(c2noc(C3CC3)n2)C1 (stereo not given)	< 4.53	–
CCCN(C(=O)c1cccnc1)c1nc2c(s1)CCc1c-2cnn1C	–	pIC50 (Histidine--tRNA ligase): 4.77 and 4.88; pIC50 (Lysine--tRNA ligase): < 4.30; pIC50 [2]: < 4.00
CN(C)Cc1nnc(C2CCN(C(=O)CCc3cccs3)CC2)n1C	< 4.53	–
COCCC(=O)N1CCc2cc(Cl)cc(Cl)c2C1	< 4.53	–
O=C(Cn1c(=O)nc2n1C(=O)N(c1ccccc1)C2)Nc1ccccc1	< 4.53	–
COc1ccc(C2=C(C)C(N3CCc4ccccc4C3)=NS2(=O)=O)cc1	4.57 and 4.62	–
CCS(=O)(=O)Nc1ccn(Cc2cccc(Cl)c2)n1	< 4.53	–
COC(=O)N1CCc2ccc(NC(=O)c3cn(C)nn3)cc2C1	< 4.53	–
CCC(NC(=O)C1CCN(S(C)(=O)=O)CC1)c1ccc(OC)c(C)c1 (stereo not given)	< 4.53	–
